Experimental data as given in patent publication US20240287076A1, “COMPOUNDS FOR TARGETING DEGRADATION OF BRUTON'S TYROSINE KINASE” (BIOGEN MA INC., priority 2021, published 2024).

Each compound was assayed against T1, BTK (Homo sapiens, UniProt Q06187) (assay: BTK degradation assay using the HiBiT Method (Nano-Glo HiBiT Lytic Assay, GM01501.3 cells)). Conditions: HiBiT Degradation on GM01501.3 BTK @ 6 hours.
T1 construct: The GM01501.3 cell line endogenously expresses BTK with a HiBiT fusion tag via CRISPR knock-in at its C-terminal region; endogenous in cells; host or cells: GM01501.3 (GM01501 cells engineered by CRISPR knock-in of HiBiT at the BTK locus)
T1 sequence (Q06187 whole entry, the tested form may be a part): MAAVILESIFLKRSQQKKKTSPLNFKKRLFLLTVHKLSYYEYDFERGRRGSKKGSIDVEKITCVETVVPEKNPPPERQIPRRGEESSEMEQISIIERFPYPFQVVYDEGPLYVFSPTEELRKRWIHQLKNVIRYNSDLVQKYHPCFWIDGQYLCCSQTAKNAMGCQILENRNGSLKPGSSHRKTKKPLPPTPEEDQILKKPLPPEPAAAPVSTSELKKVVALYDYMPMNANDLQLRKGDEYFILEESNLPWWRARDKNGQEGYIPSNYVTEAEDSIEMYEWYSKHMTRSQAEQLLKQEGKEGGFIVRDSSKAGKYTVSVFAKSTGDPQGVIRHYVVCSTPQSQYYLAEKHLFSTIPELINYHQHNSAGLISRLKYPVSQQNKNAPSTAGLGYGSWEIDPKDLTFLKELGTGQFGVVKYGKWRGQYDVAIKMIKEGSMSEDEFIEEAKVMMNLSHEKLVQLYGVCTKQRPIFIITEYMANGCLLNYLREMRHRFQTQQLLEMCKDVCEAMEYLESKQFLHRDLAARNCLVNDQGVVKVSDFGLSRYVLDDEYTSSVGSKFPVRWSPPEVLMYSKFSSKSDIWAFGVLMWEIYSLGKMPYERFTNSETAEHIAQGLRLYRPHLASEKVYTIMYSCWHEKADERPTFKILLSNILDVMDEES
Type: cell-based
How it was run: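 Degradation read-out: HiBiT luminescence after lytic reagent addition, giving DC50. Compounds dosed from 10 μM in 11 half-log steps (duplicate) onto GM01501.3 cells, whose endogenous BTK carries a C-terminal HiBiT knock-in tag; 6 h exposure, 37 °C, 5% CO2.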

DC50 [nM] | SMILES
< 100 | Cc1cc(-c2ncnn3cc(-c4ccc(CN5C6CCC5CC(c5ccc(NC7CCC(=O)NC7=O)cc5)C6)cc4)cc23)ccc1CNC(=O)c1noc(C(C)(C)C)n1 (stereo not drawn) [Example 6, 5-tert-butyl-N-[[4-[6-[4-[[3-[4-[(2,6-dioxo-3-piperidyl)amino]phenyl]-8-azabicyclo[3.2.1]octan-8-yl]methyl]phenyl]pyrrolo[2,1-f][1,2,4]triazin-4-yl]-2-methyl-phenyl]methyl]-1,2,4-oxadiazole-3-carboxamide]
< 100 | Cc1cc(-c2ncnn3cc(CCN4CCC(c5ccc(OC6CCC(=O)NC6=O)cc5F)CC4)cc23)ccc1CNC(=O)c1noc(C(C)(C)C)n1 (stereo not drawn) [Example 254, 5-(tert-butyl)-N-(4-(6-(2-(4-(4-((2,6-dioxopiperidin-3-yl)oxy)-2-fluorophenyl)piperidin-1-yl)ethyl)pyrrolo[2,1-f][1,2,4]triazin-4-yl)-2-methylbenzyl)-1,2,4-oxadiazole-3-carboxamide]
< 100 | Cc1cc(-c2ccnc3cc(CCCCN4CCC(c5ccc(NC6CCC(=O)NC6=O)cc5)CC4)nn23)ccc1CNC(=O)c1noc(C(C)(C)C)n1 (stereo not drawn) [Example 163, 5-tert-butyl-N-[[4-[2-[4-[4-[4-[(2,6-dioxo-3-piperidyl)amino]phenyl]-1-piperidyl]butyl]pyrazolo[1,5-a]pyrimidin-7-yl]-2-methyl-phenyl]methyl]-1,2,4-oxadiazole-3-carboxamide]
100 to 500 | Cc1cc(-c2ncnn3cc(CN4CCN(CCCc5ccc(NC6CCC(=O)NC6=O)cc5)CC4)cc23)ccc1CNC(=O)c1noc(C(C)(C)C)n1 (stereo not drawn) [Example 126, 5-tert-butyl-N-[[4-[6-[[4-[3-[4-[(2,6-dioxo-3-piperidyl)amino]phenyl]propyl]piperazin-1-yl]methyl]pyrrolo[2,1-f][1,2,4]triazin-4-yl]-2-methyl-phenyl]methyl]-1,2,4-oxadiazole-3-carboxamide]
< 100 | CC(C)(C)c1nc(C(=O)NCc2cc(F)c(-c3ncnn4cc(-c5ccc(CN6CCC(c7ccc(NC8CCC(=O)NC8=O)cc7)CC6)cc5)cc34)cc2Cl)no1 (stereo not drawn) [Example 49, 5-tert-butyl-N-[[2-chloro-4-[6-[4-[[4-[4-[(2,6-dioxo-3-piperidyl)amino]phenyl]-1-piperidyl]methyl]phenyl]pyrrolo[2,1-f][1,2,4]triazin-4-yl]-5-fluoro-phenyl]methyl]-1,2,4-oxadiazole-3-carboxamide]
< 100 | Cc1cc(-c2ncnn3cc(-c4ccc(CN5CCC(c6ccc(NC7CCC(=O)NC7=O)cc6)CC5)cc4)cc23)ccc1CNC(=O)c1ccc(C(F)F)cc1 (stereo not drawn) [Example 61, 4-(difluoromethyl)-N-[[4-[6-[4-[[4-[4-[(2,6-dioxo-3-piperidyl)amino]phenyl]-1-piperidyl]methyl]phenyl]pyrrolo[2,1-f][1,2,4]triazin-4-yl]-2-methyl-phenyl]methyl]benzamide]
100 to 500 | Cc1cc(-c2ncnn3cc(N4CCN(C(=O)CC5CC(NC(=O)c6ccc(OC7CCC(=O)NC7=O)cc6)C5)CC4)cc23)ccc1CNC(=O)c1noc(C(C)(C)C)n1 (stereo not drawn) [Example 175, 5-(tert-butyl)-N-(4-(6-(4-(2-(3-(4-((2,6-dioxopiperidin-3-yl)oxy)benzamido)cyclobutyl)acetyl)piperazin-1-yl)pyrrolo[2,1-f][1,2,4]triazin-4-yl)-2-methylbenzyl)-1,2,4-oxadiazole-3-]
< 100 | Cc1cc(-c2ncnn3cc(CCCCN4CCC(c5ccc(C6CCC(=O)NC6=O)cc5)CC4)cc23)ccc1CNC(=O)c1noc(C(C)(C)C)n1 (stereo not drawn) [Example 128, 5-tert-butyl-N-[[4-[6-[4-[4-[4-(2,6-dioxo-3-piperidyl)phenyl]-1-piperidyl]butyl]pyrrolo[2,1-f][1,2,4]triazin-4-yl]-2-methyl-phenyl]methyl]-1,2,4-oxadiazole-3-carboxamide]
< 100 | Cc1cc(-c2ncnn3cc(CCN4CCC(c5ccc6c(N7CCC(=O)NC7=O)nn(C)c6c5)C(F)(F)C4)cc23)ccc1CNC(=O)c1noc(C(C)(C)C)n1 (stereo not drawn) [Example 253, 5-(tert-butyl)-N-(4-(6-(2-(4-(3-(2,4-dioxotetrahydropyrimidin-1(2H)-yl)-1-methyl-1H-indazol-6-yl)-3,3-difluoropiperidin-1-yl)ethyl)pyrrolo[2,1-f][1,2,4]triazin-4-yl)-2-methylbenzyl)-1,2,4-oxadiazole-3-carboxamide]
< 100 | Cc1cc(-c2ncnn3cc(-c4ccc(CN5CCC(c6ccc(NC7CCC(=O)NC7=O)cc6)CC5)cc4)cc23)ccc1CNC(=O)c1noc(C(C)(C)C)n1 (single isomer, unassigned; isomer 1) [Example 2, 5-tert-butyl-N-[[4-[6-[4-[[4-[4-[(2,6-dioxo-3-piperidyl)amino]phenyl]-1-piperidyl]methyl]phenyl]pyrrolo[2,1-f][1,2,4]triazin-4-yl]-2-methyl-phenyl]methyl]-1,2,4-oxadiazole-3-carboxamide isomer 1]
< 100 | CC(C)(C)c1nc(C(=O)NCc2ccc(-c3ncnn4cc(-c5ccc(CN6CCc7ccc(OC8CCC(=O)NC8=O)cc7C6)cn5)cc34)cc2F)no1 (stereo not drawn) [Example 226]
< 100 | Cc1cc(-c2ncnn3cc(-c4ncc(CN5CCC(c6ccc(C7CCC(=O)NC7=O)cc6)CC5)cc4C)cc23)ccc1CNC(=O)c1noc(C(C)(C)C)n1 (stereo not drawn) [Example 213, 5-(tert-butyl)-N-(4-(6-(5-((4-(4-(2,6-dioxopiperidin-3-yl)phenyl)piperidin-1-yl)methyl)-3-methylpyridin-2-yl)pyrrolo[2,1-f][1,2,4]triazin-4-yl)-2-methylbenzyl)-1,2,4-oxadiazole-3-carboxamide]
< 100 | CN(CCOc1ccc(OC2CCC(=O)NC2=O)cc1)Cc1ccc(-c2cc3c(-c4ccc(CNC(=O)c5noc(C(C)(C)C)n5)c(F)c4)ncnn3c2)nc1 (stereo not drawn) [Example 229, 5-(tert-butyl)-N-(4-(6-(5-(((2-(4-((2,6-dioxopiperidin-3-yl)oxy)phenoxy)ethyl)(methyl)amino)methyl)pyridin-2-yl)pyrrolo[2,1-f][1,2,4]triazin-4-yl)-2-fluorobenzyl)-1,2,4-oxadiazole-3-carboxamide]
< 100 | Cc1cc(-c2ncnn3cc(-c4ccc(CN5CCC(c6cnc(NC7CCC(=O)NC7=O)nc6)CC5)cc4)cc23)ccc1CNC(=O)c1noc(C(C)(C)C)n1 (stereo not drawn) [Example 30, 5-tert-butyl-N-[[4-[6-[4-[[4-[2-[(2,6-dioxo-3-piperidyl)amino]pyrimidin-5-yl]-1-piperidyl]methyl]phenyl]pyrrolo[2,1-f][1,2,4]triazin-4-yl]-2-methyl-phenyl]methyl]-1,2,4-oxadiazole-3-carboxamide]
< 100 | Cc1cc(-c2ncnn3cc(-c4cccc(CN5CCC(c6ccc(OC7CCC(=O)NC7=O)cc6)CC5)n4)cc23)ccc1CNC(=O)c1noc(C(C)(C)C)n1 (stereo not drawn) [Example 247, 5-(tert-butyl)-N-(4-(6-(6-((4-(4-((2,6-dioxopiperidin-3-yl)oxy)phenyl)piperidin-1-yl)methyl)pyridin-2-yl)pyrrolo[2,1-f][1,2,4]triazin-4-yl)-2-methylbenzyl)-1,2,4-oxadiazole-3-carboxamide]
< 100 | Cc1cc(-c2ncnn3cc(-c4ccc(CN5CCC(c6ccc(NC7CCC(=O)NC7=O)cc6)CC5)cc4)cc23)ccc1CNC(=O)c1cc2ccccc2s1 (stereo not drawn) [Example 77, N-[[4-[6-[4-[[4-[4-[(2,6-dioxo-3-piperidyl)amino]phenyl]-1-piperidyl]methyl]phenyl]pyrrolo[2,1-f][1,2,4]triazin-4-yl]-2-methyl-phenyl]methyl]benzothiophene-2-carboxamide]
< 100 | Cc1cc(-c2ncnn3cc(N4CCN(C(=O)C5(CNC(=O)c6ccc(OC7CCC(=O)NC7=O)cc6)CC5)CC4)cc23)ccc1CNC(=O)c1noc(C(C)(C)C)n1 (stereo not drawn) [Example 174, 5-(tert-butyl)-N-(4-(6-(4-(1-((4-((2,6-dioxopiperidin-3-yl)oxy)benzamido)methyl)cyclopropane-1-carbonyl)piperazin-1-yl)pyrrolo[2,1-f][1,2,4]triazin-4-yl)-2-methylbenzyl)-1,2,4-oxadiazole-3-carboxamide]
< 100 | Cc1cc(-c2ncnn3cc(-c4ccc(CN5CCC(Oc6ccc(NC7CCC(=O)NC7=O)cc6)CC5)cc4)cc23)ccc1CNC(=O)c1noc(C(C)(C)C)n1 (stereo not drawn) [Example 201, 5-(tert-butyl)-N-(4-(6-(4-((4-(4-((2,6-dioxopiperidin-3-yl)amino)phenoxy)piperidin-1-yl)methyl)phenyl)pyrrolo[2,1-f][1,2,4]triazin-4-yl)-2-methylbenzyl)-1,2,4-oxadiazole-3-carboxamide]
< 100 | Cc1cc(-c2ncnn3cc(-c4nccc(CN5CCC(c6ccc(C7CCC(=O)NC7=O)cc6)CC5)c4F)cc23)ccc1CNC(=O)c1noc(C(C)(C)C)n1 (stereo not drawn) [Example 217, 5-(tert-butyl)-N-(4-(6-(4-((4-(4-(2,6-dioxopiperidin-3-yl)phenyl)piperidin-1-yl)methyl)-3-fluoropyridin-2-yl)pyrrolo[2,1-f][1,2,4]triazin-4-yl)-2-methylbenzyl)-1,2,4-oxadiazole-3-carboxamide]

SMILES | DC50 [nM]
CC(C)(C)OC1CN(C(=O)NCc2ccc(-c3ncnn4cc(-c5ccc(CN6CCC(c7ccc(NC8CCC(=O)NC8=O)cc7)CC6)cc5)cc34)cc2F)C1 (stereo not drawn) [Example 99, 3-tert-butoxy-N-[[4-[6-[4-[[4-[4-[(2,6-dioxo-3-piperidyl)amino]phenyl]-1-piperidyl]methyl]phenyl]pyrrolo[2,1-f][1,2,4]triazin-4-yl]-2-fluoro-phenyl]methyl]azetidine-1-carboxamide] | < 100
Cc1cc(-c2ncnn3cc(OC4CC(CN5CCC(c6ccc7c(N8CCC(=O)NC8=O)nn(C)c7c6)CC5)C4)cc23)ccc1CNC(=O)c1noc(C(C)(C)C)n1 (stereo not drawn) [Example 289, 5-(tert-butyl)-N-(4-(6-(3-((4-(3-(2,4-dioxotetrahydropyrimidin-1(2H)-yl)-1-methyl-1H-indazol-6-yl)piperidin-1-yl)methyl)cyclobutoxy)pyrrolo[2,1-f][1,2,4]triazin-4-yl)-2-methylbenzyl)-1,2,4-oxadiazole-3-carboxamide] | < 100
